# pIC50: −log10 of the molar value.
# Test system: P. falciparum 3D7 growth, pLDH absorbance
# Test: P. falciparum 3D7 growth inhibition, dose response, strain 3D7 (AID 2305)
row,SMILES,pIC50
1,CCOc1ccc(-c2nonc2NC(=O)c2cccc(Cl)c2)cc1OCC,6.82
2,Cc1ccccc1CCNC(=O)c1ccc(N2CCN(c3ccncc3)CC2)nc1,5.86
3,CCOC(=O)c1ccc(NC(=O)Nc2cccc(-c3cccc(-c4nc5c(C)cccc5[nH]4)c3)c2)cc1,6.96
4,Cc1cccc2[nH]c(-c3ccc(-c4ccc(NC(=O)Nc5cccc(C#N)c5)cc4)s3)nc12,6.92
5,CNc1ccc(CNCc2ccc(-c3ccc(-c4nc5ccc(C(F)(F)F)cc5[nH]4)cc3)cc2)cc1,6.77
6,CCOc1cc(C)ccc1N1CCN(CCCCNC(=O)c2ccc(NC(=O)c3ccc(Cl)cc3)cc2)CC1,6.19
7,CCN1CCCC1CN(Cc1ccc(-c2ccc(C(F)(F)F)cc2)cc1)C(=O)Cn1c(CCc2cccc(F)c2F)nc(=O)c2ccccc21 (stereo not drawn),5.80
8,O=C(O)C[C@H](NC(=O)c1cc(-c2ccc3c(c2)OCO3)no1)C(=O)O (tested in a mixture with another compound),6.72
9,CCCCNCc1ccc(OCc2cccc(COc3ccc(CNCCCC)cc3)c2)cc1,6.49
10,CCNc1cc(C(=O)N[C@@H](Cc2ccccc2)[C@H](O)CNC(C)(C)CCCC(C)C)cc(N2CCCC2=O)c1,6.08
11,N#Cc1ccc(-c2cnc3ccc(NCc4ccc(S(N)(=O)=O)cc4)nn23)cc1,6.11
12,CCNC(=O)c1cc(S(=O)(=O)N2CCN(c3ccccn3)CC2)cs1,6.06
13,NC1CCCN(Cc2cccc(-c3cccc(-c4nc5ccccc5[nH]4)c3)c2)C1 (stereo not drawn),6.19
14,O=C(/C=C/c1ccc(Cl)c(Cl)c1)NCCCCCN1CCN(C(=O)Nc2ccc(OC(F)F)cc2)CC1,6.02
15,CN(C)CCCc1cc(NC(=O)Nc2cccc(Cl)c2Cl)ccc1I,6.27
16,CC1(C)N=C(N)N=C(N)N1OCCCCON1C(N)=NC(N)=NC1(C)C,7.15
17,NCCCNc1ccc(-c2ccc(NC(=O)Nc3cc(C(F)(F)F)ccc3F)cc2)cn1,6.08
18,CCN(CCNC(=O)Nc1cc(C(F)(F)F)cc(C(F)(F)F)c1)c1cccc(C)c1,6.10
19,COc1ccc(C(=O)N2CCC(C(=O)NC(C)c3ccc(-n4ccnc4)cc3)CC2)c2ccccc12 (stereo not drawn),5.95
20,O=C1C2=C(Nc3ccccc3SC2c2ccccc2)c2ccccc21 (stereo not drawn),6.48
21,Cc1nc2ccccc2c(=O)n1N=Cc1ccccc1[N+](=O)[O-],6.66
22,COc1ccc2ncc(F)c(CCN3CCC(NCc4cc5c(cn4)OCCS5)CC3)c2c1,6.11
23,CCC(C)NCC(O)(c1ccc(Cl)cc1)c1ccc(Cl)cc1 (stereo not drawn),6.08

row,SMILES,pIC50
1,c1ccc(Oc2ccc(Nc3ccnc4c(-c5ccccn5)cccc34)cc2)cc1,6.00
2,Fc1ccc2nc(-c3cccc(-c4ccc(CNCCc5ccncc5)cc4)c3)[nH]c2c1,6.96
3,CCCNCc1ccc(-c2ccc(CN(C(=O)c3nn(-c4ccccc4)nc3C)C3CCOCC3)cc2)nc1,6.85
4,CN(CC1CCC(NC(=O)/C=C/c2ccc(Cl)c(Cl)c2)CC1)C1CCC(c2c[nH]c3ccccc23)CC1 (stereo not drawn),6.08
5,Cc1cccc2[nH]c(-c3ccc(-c4ccc(NC(=O)NCc5cccc(F)c5)cc4)s3)nc12,6.05
6,CCOc1cc(CC)ccc1C1CCN(CCCCNC(=O)c2ccc(NC(=O)c3ccc(C#N)cc3)cc2)CC1,6.30
7,O=C(NCc1ccc(C(F)(F)F)cc1)c1cccc(-c2nnc(-c3cccc(-c4cncnc4)c3)o2)c1,6.27
8,O=C(Nc1ccc(F)cc1)NC1CCN(c2ccnc3cc(Cl)ccc23)CC1,6.39
9,CCN(C)c1cc(C(=O)N[C@@H](Cc2ccccc2)[C@H](O)CNC(C)(C)c2cccc(OC)c2)cc(N2CCCC2=O)c1,7.15
10,COc1ccc(-c2ccc3c(-c4ccc(F)cc4)cnc(N)c3c2)cn1,6.41
11,c1cncc(CNc2ncc(-c3ccsc3)c(-c3nccs3)n2)c1,5.86
12,CN1CCN(CC(=O)Nc2ccc(-c3csc(-c4nc5ccccc5[nH]4)c3)cc2)CC1,5.81
13,Cc1cc(C(=O)CN2C(=O)NC3(CCCc4ccccc43)C2=O)c(C)n1Cc1ccco1 (stereo not drawn),5.96
14,COC(=O)c1ccc(CC(C)NCC(O)c2cccc3ccccc23)cc1 (stereo not drawn),6.03
15,COc1cc(NC(=O)c2sc(-c3ccc(Cl)cc3)cc2NC(=O)N2CCCC2)ccc1OCCN1CCCC1,6.24
16,CCCc1cc(N2CCC(N3CCCC3)CC2)nc(Nc2ccc(Cl)cc2)n1,6.12
17,CN(c1ccc(NC(=O)Nc2cc(C(F)(F)F)ccc2F)cc1)c1ccnc(NCCN2CCCC2)n1,5.94
18,CCc1ccc(N2C(N)=NC(N)=NC2(C)C)cc1,8.00
19,CCCCCNc1ccnc2cc(Cl)ccc12,6.29
20,CCN(CCS(C)(=O)=O)Cc1ccc(-c2ccc3ncnc(Nc4ccc(OCc5cccc(F)c5)c(Cl)c4)c3c2)o1,6.21
21,CCOC(=O)CCc1cc(F)c(F)c(OC[C@H](O)CNC(C)(C)C(O)c2ccc3ccccc3c2)c1 (stereo partly drawn),6.07
22,CCC(=O)c1c(C)n(-c2ncnc3c2nc(C)n3-c2ccc(C)cc2C)c2ccccc12,6.19
23,COc1cc2nc(N3CCC(CNCc4ccc(-c5ccc(C(F)(F)F)cc5)cc4)CC3)nc(N)c2cc1OC,7.05

row,SMILES,pIC50
1,COc1ccc(Nc2ncc3c(-c4cccc(NC(=O)Cc5ccc(F)cc5)c4)c[nH]c3n2)cc1OC,6.23
2,CCN(CC)CCN(Cc1ccc(-c2ccc(C(F)(F)F)cc2)cc1)C(=O)Cn1c(SCc2ccc(F)c(F)c2F)nc(=O)c2c1CCC2,5.99
3,COc1cc(C(=O)N2CCOC(CCN3CC[C@@H]4c5ccccc5C[C@@H]43)(c3ccc(Cl)c(Cl)c3)C2)cc(OC)c1OC (stereo partly drawn),6.28
4,CC(C)N1CCN(c2ccc(OCCCN3CCN(c4cccc(Cl)c4Cl)CC3)c(C(F)(F)F)c2)CC1,6.09
5,Cc1cccc2[nH]c(-c3ccc(-c4cccc(CNCC5CCCO5)c4)s3)nc12 (stereo not drawn),6.01
6,CN(CCN1CCC(c2c[nH]c3ccccc23)CC1)c1ccc(-c2nc3cc(Cl)c(Cl)cc3[nH]2)cc1,6.92
7,CCCN1CCN(c2cc(S(=O)(=O)Nc3ccc(C(=O)NCc4cccc(C(F)(F)F)c4)cc3)ccc2OC)CC1,6.00
8,CN1CCN(Cc2ccc(OCc3cccc(COc4ccc(CN5CCN(C)CC5)cc4I)c3)c(I)c2)CC1,6.00
9,COc1ccc(-c2cc(C(=O)Nc3ccc(CCCN(C)Cc4ccc(OC)c(OC)c4)cc3)c3ccccc3n2)cc1,6.15
10,CCCCc1ccc(Cc2cnc3nc(N)nc(N)c3c2C)cc1,6.64
11,CC(C)N1CCN(C(=O)c2ccc(CNCCCN3CCN(c4ccccc4C(F)(F)F)CC3)s2)CC1,6.08
12,COc1ccc(-c2ccc(NC(=O)c3cccc(C#N)c3)cc2)cc1CN1CCCN(C)CC1,6.54
13,COCCNCc1nc(-c2ccc3c(Nc4ccc(F)c(O)c4)ccnc3c2)cs1,6.16
14,O=C(NC1CCN(Cc2ccc(Cl)cc2)CC1)c1cn(-c2ccccc2)nc1-c1cccnc1,6.01
15,O=C(c1cccc(-c2noc(C(F)(F)F)n2)c1)N1CCN(c2ccncc2)CC1,6.64
16,O=C(Cc1cccc(O)c1)NCC(Cc1ccc(O)cc1)c1ccccc1 (stereo not drawn),6.19
17,CCCCOc1ccc(CNCCCCCCNCc2ccc(OCCCC)c3ccccc23)c2ccccc12,5.95
18,Cc1cccc(-c2cc3cc(Nc4ccnc5cc(-c6nccs6)ccc45)ccc3[nH]2)c1,6.77
19,COc1cccc(C2(c3cccc(OC)c3)N=C(N)N(CCCc3ccccc3)C2=O)c1,6.59
20,COc1ccc(CCNCCCCCCNCCc2ccc(Cl)cc2)c(Cl)c1OC,6.08
21,O=C(/C=C/c1ccc(Cl)c(Cl)c1)N1CCC(CN2CC[C@H](c3c[nH]c4ccccc34)[C@@H](O)C2)CC1,6.09
22,CCn1cc(CN2CCCC(C(=O)Nc3ccc(-c4nc5ccccc5[nH]4)cc3)C2)cn1 (stereo not drawn),6.03
